Measured values from patent US9133158B2, “Bicyclic dihydroisoquinoline-1-one derivatives” (Hoffmann-La Roche Inc., priority 2011, dated 2015).

How the values were obtained:
[1] = target: T1, human CYP11B1 (Homo sapiens, UniProt P15538); assay: G-402 cellular enzyme assay, human CYP11B1 (cortisol release, HTRF); type: cell-based; conditions: G-402 cells, 1 μM Deoxycortisol
T1 construct: expressed in transfected cells
T1 sequence (P15538 25-503): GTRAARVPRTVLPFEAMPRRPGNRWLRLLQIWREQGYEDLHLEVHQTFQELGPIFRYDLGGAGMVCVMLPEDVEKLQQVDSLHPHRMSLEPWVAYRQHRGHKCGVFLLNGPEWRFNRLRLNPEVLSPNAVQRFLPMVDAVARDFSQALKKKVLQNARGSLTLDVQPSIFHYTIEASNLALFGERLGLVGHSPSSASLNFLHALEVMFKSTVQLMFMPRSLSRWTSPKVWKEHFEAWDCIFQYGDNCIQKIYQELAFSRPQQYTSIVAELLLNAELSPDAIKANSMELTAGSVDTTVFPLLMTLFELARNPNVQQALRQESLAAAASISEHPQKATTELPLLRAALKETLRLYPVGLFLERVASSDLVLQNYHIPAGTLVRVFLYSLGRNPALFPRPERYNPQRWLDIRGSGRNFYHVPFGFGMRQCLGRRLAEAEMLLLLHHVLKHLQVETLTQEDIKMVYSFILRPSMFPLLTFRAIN
Source text: (§1) Herein we identified the use of the G-402 cell line as a host cell to ectopically express (transiently or stably) enzymes of the CYP11 family. Specifically we developed stable G-402 cells expressing ectopically human CYP11B1, human CYP11B2, human CYP11A1, cynmolgus CYP11B1 or cynomolgus CYP11B2 enzyme activity. Importantly the identified cell line G-402 expresses co-factors (adrenodoxin and adrenodoxin reductase) important for the activity of the CYP11 family and no relevant enzyme activity of the CYP11 family (in comparison to H295R cells) was detected in these cells. Therefore the G-402 cell line is uniquely suited as a host cell for the ectopic expression of enzymes from the CYP11 family.
(§2) G-402 cells can be obtained from ATCC(CRL-1440) and were originally derived from a renal leiomyoblastoma.
(§3) The expression plasmids contain the ORF for either human/cyno CYP11B1 or CYP11B2 under the control of a suitable promoter (CMV-promoter) and a suitable resistance marker (neomycin). Using standard techniques the expression plasmid is transfected into G-402 cells and these cells are then selected for expressing the given resistance markers. Individual cell-clones are then selected and assessed for displaying the desired enzymatic activity using 11-Deoxycorticosterone (Cyp11B2) or 11-Deoxycortisol (Cyp11B1) as a substrate.
(§4) G-402 cells expressing CYP11 constructs were established as described above and maintained in McCoy's 5a Medium Modified, ATCC Catalog No. 30-2007 containing 10% FCS and 400 μg/ml G418 (Geneticin) at 37° C. under an atmosphere of 5% CO2/95% air.
(§5) Cellular enzyme assays were performed in DMEM/F12 medium containing 2.5% charcoal treated FCS and appropriate concentration of substrate (0.3-10 uM 11-Deoxycorticosterone, 11-Deoxycortisol or Corticosterone). For assaying enzymatic activity, cells were plated onto 96 well plates and incubated for 16 h. An aliquot of the supernatant is then transferred and analyzed for the concentration of the expected product (Aldosterone for CYP11B2; Cortisol for CYP11B1). The concentrations of these steroids can be determined using HTRF assays from CisBio analyzing either Aldosterone or Cortisol.
(§6) Inhibition of the release of produced steroids can be used as a measure of the respective enzyme inhibition by test compounds added during the cellular enzyme assay. The dose dependent inhibition of enzymatic activity by a compound is calculated by means of plotting added inhibitor concentrations (x-axes) vs. measured steroid/product level (y-axes). The inhibition is then calculated by fitting the following 4-parameter sigmoidal function (Morgan-Mercer-Flodin (MMF) model) to the raw data points using the least squares method:
(§7) [formula] wherein, A is the maximum y value, B is the EC50 factor determined using XLFit, C is the minimum y value and D is the slope value.
(§8) EC50 values for compounds claimed herein were tested with the G402-based assay system described. Cyp11B2 enzyme activity was tested in presence of 1 μM Deoxycorticosterone and variable amounts of inhibitors; Cyp11B1 enzyme activity was tested in presence of 1 μM Deoxycortisol and variable amounts of inhibitors.

[2] = target: T2, human CYP11B2 (Homo sapiens, UniProt P19099); assay: G-402 cellular enzyme assay, human CYP11B2 (aldosterone release, HTRF); type: cell-based; conditions: G-402 cells, 1 μM Deoxycorticosterone
T2 construct: expressed in transfected cells
T2 sequence (P19099 25-503): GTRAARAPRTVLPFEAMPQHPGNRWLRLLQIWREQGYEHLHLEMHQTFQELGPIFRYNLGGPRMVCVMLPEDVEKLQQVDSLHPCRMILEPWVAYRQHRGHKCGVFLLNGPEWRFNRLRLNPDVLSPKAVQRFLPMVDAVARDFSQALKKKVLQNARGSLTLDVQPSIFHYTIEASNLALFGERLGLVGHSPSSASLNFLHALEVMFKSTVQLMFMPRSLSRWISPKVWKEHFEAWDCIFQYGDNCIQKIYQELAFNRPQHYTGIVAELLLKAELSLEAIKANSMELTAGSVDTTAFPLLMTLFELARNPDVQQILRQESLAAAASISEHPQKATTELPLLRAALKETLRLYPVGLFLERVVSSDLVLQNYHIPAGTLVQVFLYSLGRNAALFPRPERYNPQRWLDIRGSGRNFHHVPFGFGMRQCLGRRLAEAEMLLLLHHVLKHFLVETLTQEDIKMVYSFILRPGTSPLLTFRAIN
Source text: as §1, §2, §3, §4, §5, §6, §7, §8

Structure (SMILES)	EC50 [1]	EC50 [2]
CCC1c2cc(Cl)ccc2C(=O)N1c1cncc2c1CCCC2NS(C)(=O)=O (mixture of isomers) [Example 346, N-[4-(5-Chloro-3-ethyl-1-oxo-1,3-dihydro-isoindol-2-yl)-5,6,7,8-tetrahydro-isoquinolin-8-yl]-methanesulfonamide]	2570 nM	26.3 nM
CCS(=O)(=O)NC1CCCc2c1cncc2N1Cc2cc(Cl)ccc2C1=O (racemic) [Example 315, Ethanesulfonic acid [4-(5-chloro-1-oxo-1,3-dihydro-isoindol-2-yl)-5,6,7,8-tetrahydro-isoquinolin-8-yl]-amide]	31000 nM	1050 nM
CCC(=O)NC1CCCc2c1cncc2N1C(=O)c2ccc(Cl)cc2C1(C)C (racemic) [Example 468, N-[4-(6-Chloro-1,1-dimethyl-3-oxo-1,3-dihydro-isoindol-2-yl)-5,6,7,8-tetrahydro-isoquinolin-8-yl]-propionamide]	2660 nM	52.8 nM
CCC1c2ccc(Cl)cc2C(=O)N1c1cncc(F)c1 (single isomer, unassigned) [Example 307, (S or R)-6-Chloro-3-ethyl-2-(5-fluoro-pyridin-3-yl)-2,3-dihydro-isoindol-1-one]	15400 nM	389 nM
CCC1c2ccc(Cl)cc2C(=O)N1c1cncc(F)c1 (single isomer, unassigned) [Example 308, (R or S)-6-Chloro-3-ethyl-2-(5-fluoro-pyridin-3-yl)-2,3-dihydro-isoindol-1-one]	26300 nM	380 nM
CCC1c2cc(Cl)ccc2C(=O)N1c1cncc(F)c1 (single isomer, unassigned) [Example 309, (R or S)-5-Chloro-3-ethyl-2-(5-fluoro-pyridin-3-yl)-2,3-dihydro-isoindol-1-one]	2450 nM	16 nM
CCC1c2cc(Cl)ccc2C(=O)N1c1cncc(F)c1 (single isomer, unassigned) [Example 310, (S or R)-5-Chloro-3-ethyl-2-(5-fluoro-pyridin-3-yl)-2,3-dihydro-isoindol-1-one]	3970 nM	16.5 nM
CCC(=O)N[C@@H]1CCCc2c1cncc2N1C(=O)c2cc(Cl)ccc2[C@H]1CC (single isomer, unassigned) [Example 312, N-[(R or S)-4-((R or S)-5-Chloro-1-ethyl-3-oxo-1,3-dihydro-isoindol-2-yl)-5,6,7,8-tetrahydro-isoquinolin-8-yl]-propionamide]	4010 nM	48.2 nM
CCC(=O)N[C@@H]1CCCc2c1cncc2N1C(=O)c2cc(Cl)ccc2[C@@H]1CC (single isomer, unassigned) [Example 313, N-[(R or S)-4-((S or R)-5-Chloro-1-ethyl-3-oxo-1,3-dihydro-isoindol-2-yl)-5,6,7,8-tetrahydro-isoquinolin-8-yl]-propionamide]	3540 nM	118 nM
CCC(=O)NC1CCCc2c1cncc2N1Cc2cc(Cl)ccc2C1=O (single isomer, unassigned) [Example 314, N-[(R or S)-4-(5-Chloro-1-oxo-1,3-dihydro-isoindol-2-yl)-5,6,7,8-tetrahydro-isoquinolin-8-yl]-propionamide]	5230 nM	28.2 nM
CC(=O)NC1CCCc2c1cncc2N1CCc2cc(Cl)ccc2C1=O (single isomer, unassigned) [Example 321, N-((S or R)-6-Chloro-1-oxo-3,4,5′,6′,7′,8′-hexahydro-1H-[2,4′]biisoquinolinyl-8′-yl)-acetamide]	3990 nM	55.6 nM
CC(=O)NC1CCCc2c1cncc2N1Cc2cc(Cl)ccc2C1=O (single isomer, unassigned) [Example 322, N-[(S or R)-4-(5-Chloro-1-oxo-1,3-dihydro-isoindol-2-yl)-5,6,7,8-tetrahydro-isoquinolin-8-yl]-acetamide]	39600 nM	5140 nM
COc1ccc2c(c1)CCN(c1cccnc1)C2=O [Example 94, 6-Methoxy-2-pyridin-3-yl-3,4 dihydro-2H-isoquinolin-1-one]	–	2060 nM
CC1(C)CN(c2cccnc2)C(=O)c2ccc(Cl)cc21 [Example 102, 6-Chloro-4,4-dimethyl-2-pyridin-3-yl-3,4-dihydro-2H-isoquinolin-1-one]	–	1540 nM
CC1c2ccc(Cl)cc2C(=O)N1c1cccnc1 (centres unmarked) [Example 119, 6-Chloro-3-methyl-2-pyridin-3-yl-2,3-dihydro-isoindol-1-one]	–	722 nM
CS(=O)(=O)Nc1cncc(N2CCc3cc(Cl)ccc3C2=O)c1 [Example 220, N-[5-(6-Chloro-1-oxo-3,4-dihydro-1H-isoquinolin-2-yl)-pyridin-3-yl]-methanesulfonamide]	–	1080 nM
CCC(=O)Nc1cncc(N2CCc3cc(Cl)ccc3C2=O)c1 [Example 225, N-[5-(6-Chloro-1-oxo-3,4-dihydro-1H-isoquinolin-2-yl)-pyridin-3-yl]-propionamide]	–	2550 nM
CC(C)(Nc1cncc(N2CCc3cc(Cl)ccc3C2=O)c1)C(=O)O [Example 227, 2-[5-(6-Chloro-1-oxo-3,4-dihydro-1H-isoquinolin-2-yl)-pyridin-3-ylamino]-2-methyl-propionic acid]	–	4210 nM
O=C1c2ccc(Cl)cc2CCN1c1cncc(-c2ccc(Cl)c(Cl)c2)c1 [Example 241, 6-Chloro-2-[5-(3,4-dichloro-phenyl)-pyridin-3-yl]-3,4-dihydro-2H-isoquinolin-1-one]	–	582 nM
O=C(Nc1cncc(N2CCc3cc(Cl)ccc3C2=O)c1)C1CC1 [Example 248, Cyclopropanecarboxylic acid [5-(6-chloro-1-oxo-3,4-dihydro-1H-isoquinolin-2-yl)-pyridin-3-yl]-amide]	2650 nM	–
CN(C)C(=O)COc1cncc(N2CCc3cc(Cl)ccc3C2=O)c1 [Example 256, 2-[5-(6-Chloro-1-oxo-3,4-dihydro-1H-isoquinolin-2-yl)-pyridin-3-yloxy]-N,N-dimethyl-acetamide]	–	774 nM
CN1CCN(Cc2ccncc2N2CCc3cc(Cl)ccc3C2=O)CC1 [Example 280, 6-Chloro-2-[4-(4-methyl-piperazin-1-ylmethyl)-pyridin-3-yl]-3,4-dihydro-2H-isoquinolin-1-one]	–	1800 nM
CCOc1ccc2c(n1)C(C)(C)N(c1cncc(CNc3cc[nH]n3)c1)C2=O [Example 385, 2-Ethoxy-7,7-dimethyl-6-{5-[(1H-pyrazol-3-ylamino)-methyl]-pyridin-3-yl}-6,7-dihydro-pyrrolo[3,4-b]pyridin-5-one]	–	893 nM
